Results: the NIST ThermoML archive (doi:10.1016/j.tca.2014.04.026)
Numbers after ± are expanded uncertainties.

Assay: molar heat capacity at constant pressure; wn = mass fraction of the nth substance listed
Settings: 101 kPa, Liquid, Small sample (50 mg) DSC

## CCn1cc[n+](C)c1.N#C[C-](C#N)C#N [1-ethyl-3-methyl-1H-imidazolium tricyanomethanide] + CCn1cc[n+](C)c1.N#CN=C=[N-]
296.2 K, w2 = 0
  molar heat capacity at constant pressure: 357 ± 7 J/K/mol
296.2 K, w2 = 0.25
  molar heat capacity at constant pressure: 354 ± 7 J/K/mol
296.2 K, w2 = 0.5
  molar heat capacity at constant pressure: 344 ± 7 J/K/mol
296.2 K, w2 = 0.75
  molar heat capacity at constant pressure: 335 ± 7 J/K/mol
300.2 K, w2 = 0
  molar heat capacity at constant pressure: 360 ± 7 J/K/mol
300.2 K, w2 = 0.25
  molar heat capacity at constant pressure: 355 ± 7 J/K/mol
300.2 K, w2 = 0.5
  molar heat capacity at constant pressure: 346 ± 7 J/K/mol
300.2 K, w2 = 0.75
  molar heat capacity at constant pressure: 338 ± 7 J/K/mol
304.2 K, w2 = 0
  molar heat capacity at constant pressure: 362 ± 7 J/K/mol
304.2 K, w2 = 0.25
  molar heat capacity at constant pressure: 356 ± 7 J/K/mol
304.2 K, w2 = 0.5
  molar heat capacity at constant pressure: 347 ± 7 J/K/mol
304.2 K, w2 = 0.75
  molar heat capacity at constant pressure: 339 ± 7 J/K/mol
308.2 K, w2 = 0
  molar heat capacity at constant pressure: 364 ± 7 J/K/mol
308.2 K, w2 = 0.25
  molar heat capacity at constant pressure: 357 ± 7 J/K/mol
308.2 K, w2 = 0.5
  molar heat capacity at constant pressure: 348 ± 7 J/K/mol
308.2 K, w2 = 0.75
  molar heat capacity at constant pressure: 340 ± 7 J/K/mol
312.2 K, w2 = 0
  molar heat capacity at constant pressure: 366 ± 7 J/K/mol
312.2 K, w2 = 0.25
  molar heat capacity at constant pressure: 358 ± 7 J/K/mol
312.2 K, w2 = 0.5
  molar heat capacity at constant pressure: 350 ± 7 J/K/mol
312.2 K, w2 = 0.75
  molar heat capacity at constant pressure: 342 ± 7 J/K/mol
316.2 K, w2 = 0
  molar heat capacity at constant pressure: 367 ± 7 J/K/mol
316.2 K, w2 = 0.25
  molar heat capacity at constant pressure: 359 ± 7 J/K/mol
316.2 K, w2 = 0.5
  molar heat capacity at constant pressure: 352 ± 7 J/K/mol
316.2 K, w2 = 0.75
  molar heat capacity at constant pressure: 343 ± 7 J/K/mol
320.2 K, w2 = 0
  molar heat capacity at constant pressure: 369 ± 7 J/K/mol
320.2 K, w2 = 0.25
  molar heat capacity at constant pressure: 360 ± 7 J/K/mol
320.2 K, w2 = 0.5
  molar heat capacity at constant pressure: 352 ± 7 J/K/mol
320.2 K, w2 = 0.75
  molar heat capacity at constant pressure: 344 ± 7 J/K/mol
324.2 K, w2 = 0
  molar heat capacity at constant pressure: 370 ± 7 J/K/mol
324.2 K, w2 = 0.25
  molar heat capacity at constant pressure: 361 ± 7 J/K/mol
324.2 K, w2 = 0.5
  molar heat capacity at constant pressure: 354 ± 7 J/K/mol
324.2 K, w2 = 0.75
  molar heat capacity at constant pressure: 345 ± 7 J/K/mol
328.2 K, w2 = 0
  molar heat capacity at constant pressure: 372 ± 7 J/K/mol
328.2 K, w2 = 0.25
  molar heat capacity at constant pressure: 363 ± 7 J/K/mol
328.2 K, w2 = 0.5
  molar heat capacity at constant pressure: 356 ± 7 J/K/mol
328.2 K, w2 = 0.75
  molar heat capacity at constant pressure: 347 ± 7 J/K/mol
332.2 K, w2 = 0
  molar heat capacity at constant pressure: 374 ± 8 J/K/mol
332.2 K, w2 = 0.25
  molar heat capacity at constant pressure: 365 ± 7 J/K/mol
332.2 K, w2 = 0.5
  molar heat capacity at constant pressure: 358 ± 7 J/K/mol
332.2 K, w2 = 0.75
  molar heat capacity at constant pressure: 349 ± 7 J/K/mol
336.2 K, w2 = 0
  molar heat capacity at constant pressure: 377 ± 8 J/K/mol
336.2 K, w2 = 0.25
  molar heat capacity at constant pressure: 367 ± 7 J/K/mol
336.2 K, w2 = 0.5
  molar heat capacity at constant pressure: 360 ± 7 J/K/mol
336.2 K, w2 = 0.75
  molar heat capacity at constant pressure: 352 ± 7 J/K/mol
340.2 K, w2 = 0
  molar heat capacity at constant pressure: 379 ± 8 J/K/mol
340.2 K, w2 = 0.25
  molar heat capacity at constant pressure: 370 ± 7 J/K/mol
340.2 K, w2 = 0.5
  molar heat capacity at constant pressure: 362 ± 7 J/K/mol
340.2 K, w2 = 0.75
  molar heat capacity at constant pressure: 354 ± 7 J/K/mol
344.2 K, w2 = 0
  molar heat capacity at constant pressure: 382 ± 8 J/K/mol
344.2 K, w2 = 0.25
  molar heat capacity at constant pressure: 372 ± 7 J/K/mol
344.2 K, w2 = 0.5
  molar heat capacity at constant pressure: 365 ± 7 J/K/mol
344.2 K, w2 = 0.75
  molar heat capacity at constant pressure: 356 ± 7 J/K/mol
348.2 K, w2 = 0
  molar heat capacity at constant pressure: 384 ± 8 J/K/mol
348.2 K, w2 = 0.25
  molar heat capacity at constant pressure: 374 ± 8 J/K/mol
348.2 K, w2 = 0.5
  molar heat capacity at constant pressure: 367 ± 7 J/K/mol
348.2 K, w2 = 0.75
  molar heat capacity at constant pressure: 359 ± 7 J/K/mol
352.2 K, w2 = 0
  molar heat capacity at constant pressure: 387 ± 8 J/K/mol
352.2 K, w2 = 0.25
  molar heat capacity at constant pressure: 377 ± 8 J/K/mol
352.2 K, w2 = 0.5
  molar heat capacity at constant pressure: 370 ± 7 J/K/mol
352.2 K, w2 = 0.75
  molar heat capacity at constant pressure: 362 ± 7 J/K/mol
356.2 K, w2 = 0
  molar heat capacity at constant pressure: 390 ± 8 J/K/mol
356.2 K, w2 = 0.25
  molar heat capacity at constant pressure: 381 ± 8 J/K/mol
356.2 K, w2 = 0.5
  molar heat capacity at constant pressure: 373 ± 7 J/K/mol
356.2 K, w2 = 0.75
  molar heat capacity at constant pressure: 365 ± 7 J/K/mol
360.2 K, w2 = 0
  molar heat capacity at constant pressure: 393 ± 8 J/K/mol
360.2 K, w2 = 0.25
  molar heat capacity at constant pressure: 383 ± 8 J/K/mol
360.2 K, w2 = 0.5
  molar heat capacity at constant pressure: 376 ± 8 J/K/mol
360.2 K, w2 = 0.75
  molar heat capacity at constant pressure: 368 ± 7 J/K/mol
364.2 K, w2 = 0
  molar heat capacity at constant pressure: 396 ± 8 J/K/mol
364.2 K, w2 = 0.25
  molar heat capacity at constant pressure: 385 ± 8 J/K/mol
364.2 K, w2 = 0.5
  molar heat capacity at constant pressure: 380 ± 8 J/K/mol
364.2 K, w2 = 0.75
  molar heat capacity at constant pressure: 371 ± 7 J/K/mol
368.2 K, w2 = 0
  molar heat capacity at constant pressure: 399 ± 8 J/K/mol
368.2 K, w2 = 0.25
  molar heat capacity at constant pressure: 388 ± 8 J/K/mol
368.2 K, w2 = 0.5
  molar heat capacity at constant pressure: 383 ± 8 J/K/mol
368.2 K, w2 = 0.75
  molar heat capacity at constant pressure: 374 ± 8 J/K/mol
372.2 K, w2 = 0
  molar heat capacity at constant pressure: 403 ± 8 J/K/mol
372.2 K, w2 = 0.25
  molar heat capacity at constant pressure: 391 ± 8 J/K/mol
372.2 K, w2 = 0.5
  molar heat capacity at constant pressure: 387 ± 8 J/K/mol
372.2 K, w2 = 0.75
  molar heat capacity at constant pressure: 378 ± 8 J/K/mol
